From the supplement of paper PMC10307832

Key:
Assay in all cases: relative viability (nuclei count vs DMSO), 5 days (fraction); higher = more cells survive
[1] = compound: CC(O)(CS(=O)(=O)c1ccc(F)cc1)C(=O)Nc1ccc(C#N)c(C(F)(F)F)c1 [Bicalutamide] + C[C@]1(O)C[C@@H](c2nc(-c3ccc4ccc(-c5ccccc5)nc4c3)c3c(N)nccn32)C1 [Linsitinib] (partner 1 µM)
Summary of the method: (§1)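 Dosing by pin tool came one day after lung cancer cell lines were seeded in 1536-well plates, using either one drug or a fixed anchor-drug dose plus five library-drug doses (not always all listed) in √10 steps. After 5 days, nuclei were counted on 4× images. Relative viability is treated-well nuclei count divided by vehicle-well nuclei count, and values are medians of duplicate plates.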

[2] = compound: CC(O)(CS(=O)(=O)c1ccc(F)cc1)C(=O)Nc1ccc(C#N)c(C(F)(F)F)c1 [Bicalutamide] + Nc1ncn([C@H]2C[C@H](O)[C@@H](CO)O2)c(=O)n1 [Decitabine] (partner 2 µM)
Summary of the method: as §1

[3] = compound: CC(O)(CS(=O)(=O)c1ccc(F)cc1)C(=O)Nc1ccc(C#N)c(C(F)(F)F)c1 [Bicalutamide] + CC(=O)Nc1cccc(-n2c(=O)n(C3CC3)c(=O)c3c(Nc4ccc(I)cc4F)n(C)c(=O)c(C)c32)c1 [Trametinib] (partner 0.02 µM)
Summary of the method: as §1

[4] = compound: C(C(=O)C(=O)O)Br [Bromopyruvate] + CCNC(=O)c1noc(-c2cc(C(C)C)c(O)cc2O)c1-c1ccc(CN2CCOCC2)cc1 [Luminespib] (partner 0.01 µM)
Summary of the method: as §1

Row | Cell Line | relative viability ([1]; first compound 0.08 µM) | relative viability ([1]; first compound 0.253 µM) | relative viability ([1]; first compound 0.8 µM) | relative viability ([1]; first compound 2.53 µM) | relative viability ([2]; first compound 0.08 µM) | relative viability ([2]; first compound 0.253 µM) | relative viability ([2]; first compound 0.8 µM) | relative viability ([2]; first compound 2.53 µM) | relative viability ([3]; first compound 0.08 µM) | relative viability ([3]; first compound 0.253 µM) | relative viability ([3]; first compound 0.8 µM) | relative viability ([3]; first compound 2.53 µM) | relative viability ([4]; first compound 1 µM) | relative viability ([4]; first compound 3.162 µM) | relative viability ([4]; first compound 10 µM) | relative viability ([4]; first compound 31.62 µM) | relative viability ([4]; first compound 100 µM)
1 | LXF-289 | 0.962 | 0.92 | 1 | 0.972 | 0.346 | 0.398 | 0.403 | 0.403 | 0.667 | 0.636 | 0.734 | 0.656 | 0.744 | 0.71 | 0.779 | 0.808 | 0.753
2 | NCI-H23 | 0.584 | 0.526 | 0.498 | 0.454 | 0.312 | 0.36 | 0.311 | 0.297 | 0.418 | 0.317 | 0.434 | 0.399 | 0.216 | 0.182 | 0.238 | 0.203 | 0.201
3 | NCI-H322M | 0.94 | 0.976 | 1.02 | 1.04 | 0.656 | 0.494 | 0.649 | 0.735 | 0.537 | 0.541 | 0.502 | 0.503 | 0.821 | 0.977 | 0.891 | 0.879 | 0.747
4 | NCI-H358 | 0.763 | 0.65 | 0.841 | 0.786 | 0.224 | 0.224 | 0.193 | 0.204 | 0.161 | 0.128 | 0.125 | 0.132 | 0.429 | 0.397 | 0.554 | 0.322 | 0.31
5 | NCI-H441 | 0.6 | – | 0.863 | 0.404 | 0.264 | 0.23 | 0.22 | 0.257 | 0.492 | 0.374 | 0.497 | 0.406 | 0.445 | 0.505 | 0.323 | 0.524 | 0.38
6 | NCI-H460 | 0.854 | 0.556 | 0.986 | 0.672 | 0.55 | 0.468 | 0.598 | 0.484 | 0.139 | 0.129 | 0.128 | 0.129 | 0.0351 | 0.0317 | 0.0297 | 0.0334 | 0.0363
7 | NCI-H520 | 0.941 | 0.875 | 1.12 | 0.815 | 0.576 | 0.52 | 0.646 | 0.51 | 0.725 | 0.363 | 0.939 | 0.432 | 0.223 | 0.216 | 0.228 | 0.182 | 0.242
8 | NCI-H596 | 1.09 | 0.968 | 1.25 | 1.14 | 0.975 | 1.02 | 1.09 | 0.983 | 0.76 | 0.765 | 0.994 | 0.952 | 1.05 | 1.02 | 1.14 | 0.951 | 0.282
9 | NCI-H647 | 1.2 | 1.17 | 1.48 | 0.955 | 0.601 | 0.328 | 0.34 | 0.338 | 0.482 | 0.429 | 0.721 | 0.414 | 0.203 | 0.306 | 0.108 | 0.109 | 0.4
10 | NCI-H650 | 0.906 | 1.07 | 1.1 | 0.489 | 0.318 | 0.308 | 0.333 | 0.335 | 1.04 | 1.01 | 1.12 | 0.934 | 0.887 | 0.723 | 0.791 | 0.704 | 0.724
11 | NCI-H661 | 0.538 | 0.63 | 0.612 | 0.61 | 0.546 | 0.51 | 0.557 | 0.549 | 0.631 | 0.534 | 0.621 | 0.558 | 0.882 | 0.969 | 0.964 | 0.91 | 0.892
12 | NCI-H727 | 0.234 | 0.356 | 0.295 | 0.269 | 0.994 | 0.847 | 0.896 | 0.991 | 0.38 | 0.381 | 0.414 | 0.399 | 0.277 | 0.571 | 0.218 | 0.377 | 0.592
13 | NCI-H838 | 0.962 | 1 | 1 | 0.827 | 0.484 | 0.461 | 0.508 | 0.371 | 0.553 | 0.419 | 0.661 | 0.293 | 0.282 | 0.359 | 0.456 | 0.324 | 0.282
14 | NCI-H1355 | 0.781 | 0.782 | 0.957 | 0.805 | 0.367 | 0.348 | 0.395 | 0.376 | 0.432 | 0.383 | 0.447 | 0.472 | 0.721 | 0.77 | 0.649 | 0.735 | 0.698
15 | NCI-H1395 | 1.22 | 1.03 | 1.09 | 1 | 0.754 | 0.672 | 0.787 | 0.806 | 0.986 | 1.04 | 1.12 | 0.948 | 0.661 | 0.705 | 0.932 | 0.754 | 0.992
16 | NCI-H1437 | 1.01 | 1 | 1.28 | 0.965 | 0.554 | 0.501 | 0.599 | 0.616 | 0.598 | 0.475 | 0.612 | 0.476 | 1.16 | 1.19 | 1.16 | 1.12 | 1.1
17 | NCI-H1651 | 0.966 | 0.903 | 1.1 | 0.913 | 0.6 | 0.618 | 0.779 | 0.655 | 0.836 | 0.773 | 0.932 | 0.83 | 0.853 | 0.848 | 0.929 | 0.811 | 1.01
18 | NCI-H1666 | 0.814 | 0.8 | 0.932 | 0.955 | 0.724 | 0.706 | 0.767 | 0.723 | 0.926 | 0.838 | 0.866 | 0.959 | 1.08 | 1.14 | 0.989 | 1.04 | 0.844
